Patent publication US11930822B2, “Methylobacterium compositions for fungal disease control” (priority 2017, dated 2024)

Experiments:
Pythium sylvaticum = assay: Greenhouse Pythium assay in soybean, Pythium sylvaticum; format: in vivo
Experimental: (§1) A greenhouse experiment was conducted is to evaluate the ability of Methylobacterium strains to suppress Pythium disease in soybean. Methylobacterium treatments were compared to treatments with metalaxyl at various rates to determine if Methylobacterium strains can provide protection beyond and in addition to the level of protection provided by commonly used agronomic seed treatments. The experiment was designed to allow for growth of plants for in the presence of moderate levels of Pythium. spp. to determine impacts on emergence, % dead seed and root rot incidence and severity.
(§2) Pythium inoculants were prepared by mixing 453 g of parboiled rice and 323 mL of distilled water, placing the rice in a vented autoclavable plastic bag, and autoclaving 2×40 minutes with each cycle separated by 24 hours. Rice was inoculated with 3-4-day-old Pythium cultures and incubated for 7-10 days at 23 °C in the dark. The inoculum was then dried for 2 days.
(§3) A 20 ml layer of rice inoculum is placed on soil in cups and additional soil layered on top of the inoculum to position the inoculum approximately 2-3 cm below the seeds to be planted. Water is added to the soil and 10 seeds are planted in each cup. Domes are placed over the cups and the cups are placed in growth chambers with temperature set at 230C, and on a diurnal cycle of 16 h light and 8 h dark. The seeds are incubated for 14 days at 23 °C. For experiments to assess activity of Methylobacterium strains against a consortium of 4 Pythium species, the seeds are incubated for 14 days at 130C and for an additional 7 days at 23 °C.
(§4) Plants are rated when the first trifoliate is fully emerged and open to determine total plant weight, number of seedlings and number of dead seeds. Disease incidence is evaluated as percent plants with rotted roots and disease severity as percent rotted root tissue for each seedling.

Pythium lutarium = assay: Greenhouse Pythium assay in soybean, Pythium lutarium; format: in vivo
Experimental: as §1, §2, §3, §4

[1] = system: P. torulosum, P. oopapillum, P. sylvaticum and P. lutarium; assay: Greenhouse Pythium assay in soybean, consortium of 4 Pythium species; format: in vivo, Pythium spp.
Experimental: as §1, §2, §3, §4
Results from inoculation with a consortium of 4 Pythium species at alternating temperature of 130C and 230C are shown in Tables 35-36 below. The four species, which are all important pathogens of corn and soybean, are P. torulosum, P. oopapillum, P. sylvaticum and P. lutarium.

SMILES: COCC(=O)N(c1c(C)cccc1C)C(C)C(=O)OC (stereo not drawn) [metalaxyl]
- % Dead Seed (Pythium sylvaticum; Table 31, 0.35 Fl. oz/cwt): 18%
- Emergence (Pythium sylvaticum; Table 31, 0.35 Fl. oz/cwt): 82
- Mean Emergence (%) (Pythium sylvaticum; Table 32, 0.35 Fl. oz/cwt): 78%
- Mean Root Rot Severity (%) (Pythium sylvaticum; Table 32, 0.35 Fl. oz/cwt): 17%
- Mean Emergence (%) (Pythium sylvaticum; Table 32, 0.75 Fl. oz/cwt): 92%
- Mean Root Rot Severity (%) (Pythium sylvaticum; Table 32, 0.75 Fl. oz/cwt): 18%
- Mean Emergence (%) (Pythium sylvaticum; Table 32, 1.25 Fl. oz/cwt): 78%
- Mean Root Rot Severity (%) (Pythium sylvaticum; Table 32, 1.25 Fl. oz/cwt): 21%
- % Dead Seed (Pythium lutarium; Table 33, 0.75 Fl. oz/cwt): 3%
- Mean Emergence (%) (Pythium lutarium; Table 33, 0.75 Fl. oz/cwt): 97%
- % Dead Seed (Pythium lutarium; Table 33, 1.25 Fl. oz/cwt): 67%
- Mean Emergence (%) (Pythium lutarium; Table 33, 1.25 Fl. oz/cwt): 93%
- Mean Root Rot Incidence (%) (Pythium lutarium; Table 34, 0.35 Fl. oz/cwt): 95%
- Mean Root Rot Severity (%) (Pythium lutarium; Table 34, 0.35 Fl. oz/cwt): 13%
- Mean Root Rot Incidence (%) (Pythium lutarium; Table 34, 0.75 Fl. oz/cwt): 95%
- Mean Root Rot Severity (%) (Pythium lutarium; Table 34, 0.75 Fl. oz/cwt): 10%
- Mean Root Rot Incidence (%) (Pythium lutarium; Table 34, 1.25 Fl. oz/cwt): 93%
- Mean Root Rot Severity (%) (Pythium lutarium; Table 34, 1.25 Fl. oz/cwt): 11%
- Mean Dead Seed (%) ([1]; Table 35, 0.35 Fl. oz/cwt): 6%
- Mean Emergence (%) ([1]; Table 35, 0.35 Fl. oz/cwt): 94%
- Mean Dead Seed (%) ([1]; Table 35, 0.75 Fl. oz/cwt): 2%
- Mean Emergence (%) ([1]; Table 35, 0.75 Fl. oz/cwt): 100%
- Mean Dead Seed (%) ([1]; Table 35, 1.25 Fl. oz/cwt): 2%
- Mean Emergence (%) ([1]; Table 35, 1.25 Fl. oz/cwt): 94%
- Root Rot INC (%) ([1]; Table 36, 0.35 Fl. oz/cwt): 94%
- Root Rot Severity (%) ([1]; Table 36, 0.35 Fl. oz/cwt): 13%
- Root Rot INC (%) ([1]; Table 36, 0.75 Fl. oz/cwt): 100%
- Root Rot Severity (%) ([1]; Table 36, 0.75 Fl. oz/cwt): 12%
- Root Rot INC (%) ([1]; Table 36, 1.25 Fl. oz/cwt): 94%
- Root Rot Severity (%) ([1]; Table 36, 1.25 Fl. oz/cwt): 9%
